Bounds are passed on as bounds.

Common to all, as to format: cell-based
Data set [1] concerns Staphylococcus aureus (S. aureus—ATCC 29213). Briefly: Antibacterial test by colony counting method, S. aureus. The note with it: for logarithm reduction of bacteria / percentage reduction of bacteria: S. aureus ~8 Log CFU/mL. The procedure: (§1) The antibacterial activity of the nanofiber mats was tested by colony counting method against Staphylococcus aureus (S. aureus) and E. coli, which are commonly found on burn wounds. For the antibacterial studies, logarithmic-phase cultures were prepared by initially suspending several colonies in phosphate buffered saline (PBS, 0.1 M, pH 7.4) at a density equivalent to a 0.5 McFarland standard of 1×10^8 colony forming units (CFU) mL^−1 and then diluted 100 times to 1×10^6 CFU mL^−1. 15 μL of the diluted E-coli and S. aureus suspension was further diluted into 45 mL cation-supplemented MuellerHinton (MH) broth and TSB, respectively. After culturing in the incubator at 37° C. for overnight, the concentration of bacteria went up to 10^8 CFU mL^−1. 2 mL of bacteria suspension was added to 4 mg of nanofibers and incubated. At the predetermined contact times, 150 μL of bacteria culture was taken from the flask, neutralized, and decimal serial dilutions with PBS were repeated with each initial sample. 30 μL of the diluted sample was then spread onto four zones of a Tryptone Soya agar plate (CM 0131, OXOID). After incubation of the plates at 37° C. for 18 h, the number of viable bacteria (colonies) was counted manually for control (A, bacteria suspension without sample) and BTAC-loaded nanofibers (B). Bacteria reduction was reported as percentage and Log 10. The percentage reduction of bacteria (%)=(A−B)/A×100; and logarithm reduction=log(A/B).

In data set [2] the test system is ATCC-PCS-201 neonatal human dermal fibroblast. As to the kind of experiment: In vitro cytotoxicity assay (MTT) on fibroblast cells. The following applies: after 24 h of contact, free BTAC at 34 mg/L. The procedure:
An in vitro cytotoxicity assay was conducted on fibroblast cells (ATCC-PCS-201 neonatal human dermal fibroblast) to evaluate the effect of drug-loaded nanofibers. Nanofibers were cut in to the same shape and weighted to 4 mg (triplicate). They were pre-soaked in 1 mL of ethanol for 10 min. Samples were exposed to UV light for 45 min (each side). Fibroblast cells were cultured in 24 well-plates at density of 1×10^5 (cell/mL). After reaching to 90% confluence, 2 mL of fibroblast culture medium was added to each of the wells and the dressings. Afterwards, the cells were incubated at 37° C. for 24 h. Cell viability was determined using MTT assay after removal of dressings. Each well received 500 μL of 1:10 (v/v) MTT and fibroblast medium solution. Subsequently, after 2 h incubation at 37° C., the culture medium with the MTT solution were aspirated and replaced by 500 μL DMSO. Finally, 100 μL aliquots from each well (in triplicate) were transferred to 96-well plates and viability of cells was evaluated using spectrophotometer at 570 nm wavelength (PowerWave™ XS2 Microplate Spectrophotometer, BioTek Instruments Inc., Canada).

Data set [3] concerns Escherichia coli (E-coli—ATCC 25922). As to the kind of experiment: Antibacterial test by colony counting method, E. coli. The following applies: for logarithm reduction of bacteria / percentage reduction of bacteria: E. coli ~8 Log CFU/mL. How it is done:
as §1

As for `CCCCCCCCCCCCCC[N+](C)(C)Cc1ccccc1` [BTAC, benzyl dimethyl tetradecyl ammonium chloride], the “logarithm reduction of bacteria” value in data set [1] (contact time 5 min) is reported as 1.4 ± 0.2 Log10; in data set [1] (contact time 10 min), 1.8 ± 0.3 Log10; in data set [1] (contact time 20 min), 8.9 Log10; in data set [3] (contact time 5 min) it was 1.3 ± 0.0 Log10; in data set [3] (contact time 10 min), 1.4 ± 0.1 Log10; in data set [3] (contact time 20 min), 1.9 ± 0.1 Log10. For the same compound, the “logarithm reduction of bacteria” value in data set [3] (contact time 30 min) was determined as 8.9 Log10. Also, the “percentage reduction of bacteria” value in data set [1] (contact time 5 min) is recorded as 96.1 ± 0.2%; in data set [1] (contact time 10 min), 98.5 ± 0.9%; in data set [1] (contact time 20 min), 100.0%; in data set [3] (contact time 5 min), 95.3 ± 0.3%; in data set [3] (contact time 10 min), 96.0 ± 0.2%; in data set [3] (contact time 20 min), 98.8 ± 0.5%. In addition, the “percentage reduction of bacteria” value in data set [3] (contact time 30 min) is 100.0%. The “time to 100% bacteria inhibition” value in data set [1] (against S. aureus) and in data set [3] (against E. coli) was below 60 min throughout. This compound also displayed a fibroblast cell viability in data set [2] of 55.2±4.0.

The values above are taken from patent US11911521B2, “Antibacterial nanofiber” (UNIVERSITY OF MANITOBA, priority 2017, dated 2024).
